Consider 1 compound from patent US20040209238A1, “Cell division-visualized cell and method of production of the same, method of detection of fluorescence, method of evaluation of influence upon cell division, and method of screenig” (NAGASE & CO., LTD., priority 2002, published 2004).

The structures appear in SMILES notation. Entries after “also recorded” stand apart in the source; their conditions may differ.

For this test, the system named is human MDA435 cell (transformed with aurora A-GFP, histone H3-CFP, importin α-DsRed). In words: real-time fluorescence observation of cell division in the cell division-visualized cell after addition of an agent. It is filed as cell-based. The following applies: vinblastine added to the culture fluid. As for the experimental part:
As a cell to which the aforementioned plasmid DNA is introduced, human MDA435 cell (Vig et al., 1996; Sugimoto et al., 2000, 2001) was used. The human MDA435 cell was cultured in D-MEM medium containing 10% FCS (manufactured by Nissui Pharmaceutical Co., Ltd.) at 37° C. under 5% carbon dioxide in the air. Cells in the logarithmic growth phase were washed with 4 ml of 1×PBS (−), and the cells were detached by adding 1 ml of trypsin. After terminating the action of trypsin by adding 4 ml of D-MEM medium, the cell suspension was transferred into a centrifuge tube, and a part thereof was removed to subject to the measurement of cell number using a hematometer. The remaining part was centrifuged at 1000 rpm for 10 minutes, and thus recovered cells were washed by suspending in 12 ml of 1×PBS (−). This operation was repeated twice, and the cells were suspended in 1×K-PBS to give the cell density of 1.2×10^7 cells/ml.
The transformed cells described above were cultured in a wet chamber with controlled carbon dioxide concentration and temperature by a thermostat and a control timer of carbon dioxide introduction (Japan, manufactured by Kokensya Engineering), using a 35 mm dish (with a cover glass attached on the bottom: manufactured by ASAHI TECHNO GLASS CORPORATION) on the stage of a inverted fluorescence microscope “Eclipse TE300” (manufactured by Nikon) equipped with a objective lens “PlanApo 60×”. Then, a highly sensitive CCD camera ORCA-ER (manufactured by Hamamatsu Photonics K.K.), and an excitation/absorption filter wheel equipped with a filter set for CFP/YFP/RFP for the observation (No. 86006, manufactured by Chroma Technology Corp.) and aZ-axis motor, and a controller “BioPoint MAC5000” (manufactured by Ludl Electronic Products Ltd.) which is a control equipment of the same were used, with the use of a computer software (LuminaVision version 1.40, manufactured by Mitani Co., Ltd.) for controlling these accessories. […]

Consider `CC[C@]1(O)C[C@@H]2CN(CCc3c([nH]c4ccccc34)[C@@](C(=O)OC)(c3cc4c(cc3OC)N(C)[C@H]3[C@@](O)(C(=O)OC)[C@H](OC(C)=O)[C@]5(CC)C=CCN6CC[C@]43[C@@H]65)C2)C1` [vinblastine], for which, for the setting “cyan fluorescence (histone H3), up to 130 minutes following initiation of the observation, FIG. 2 and FIG. 3”, the “alignment of the chromosomes on the equatorial plane (transition to the metaphase)” value was “not found even after lapse of 130 minutes; also recorded: not observed even after lapse of 130 minutes”. For the same compound, for the setting “green fluorescence (aurora A), FIG. 2”, the “movement of the centrosomes toward the poles and formation of the spindle” value is on record as “inhibition was made on the movement of the centrosomes toward the poles”. Also, the “progress of cell division, transition from the prophase to the prometaphase” value (observed at intervals of 2 minutes, FIG. 2 and FIG. 3) is “inhibition of the transition from the prophase to the prometaphase”.
